Test results from US20110039921A1 (priority 2007, published 2011).
Read-outs that look alike come from different tables or passages of the source.

Tests used:
[1] = test system: MCF-7/D: adriamycin-resistant subline of the human mammary adenocarcinoma cell strain MCF-7; experiment: MTT cytotoxicity assay, MCF-7/D cells; format: cell-based; conditions: Table 2, read-out: IC50 (mol/L) MCF-7/D
Experimental: (§1) Experiment 1. Cytotoxicity Screening Assay at Cell Level of Compounds of this Invention
(§2) Tumor cells at log phase were incubated on 96-well plates at a density of 1˜1.2×10^4 cells/ml, 100 μl/well. 24 h later, treatment cells were exposed to the tested agents at different concentrations. Each tested agents had 4˜5 doses, and each dose had at least 3 parallel wells. Control cells were exposed to solvents in the same volume with treat agents. Cells were cultured at 37° C. in a cell incubator with 5% CO2 and 95% air atmosphere. After 4 days of culture, the incubation medium was removed, then 200 μl 0.2% MTT (prepared by RPMI 1640) was added to each well and the plates were incubated at 37° C. for 4 hours. The supernatant was discarded and dissolved the resulting formazen product with 200 μl DMSO in each well. The absorbance at a reference wavelength of 450 nm and a test wavelength of 570 nm was read on a microplate reader after tenderly shaking. Calculated drug inhibitory rate using the following equation and IC50, taking solvent exposure tumor cells as control cells.

[2] = test system: Bel-7402; experiment: MTT cytotoxicity assay, Bel-7402 cells; format: cell-based; conditions: Table 2, read-out: IC50 (mol/L) Bel-7402
Experimental: as §1, §2

[3] = test system: Lewis lung cancer; experiment: Inhibitory activity on mice Lewis lung cancer
[4] = test system: KB: the human oral epithelium cancer cell strain; experiment: cells; format: cell-based
Experimental: as §1, §2

[5] = test system: A549: the human lung adenocarcinoma cell strain; experiment: cells; format: cell-based
Experimental: as §1, §2

[6] = test system: A549/Taxol: the taxol-resistant substrain of A549; experiment: cells; format: cell-based, human
Experimental: as §1, §2

[7] = test system: KB/V: the vincristine-resistant substrain of KB; experiment: cells; format: cell-based, human; conditions: Table 1; MTT, 4 days of culture; read-out: IC50(M) KB/V
Experimental: as §1, §2

[8] = test system: HCT-8; experiment: MTT cytotoxicity assay, HCT-8 cells; format: cell-based; conditions: Table 2, read-out: IC50 (mol/L) HCT-8
Experimental: as §1, §2

[9] = test system: human gastric carcinoma BGC-823 nude mice-xenograft tumor; experiment: Growth inhibition on BGC-823-nude mice-xenograft tumor; conditions: for Tv x ± SD dn: dn 30 days after the first administration
Text: (§3) Genera: BALB/c (nu-nu) nude mice
(§4) After one-week accommodation, animals were given subcutaneous implantation of the human lung adenocarcinoma A549 or the human ovarian cancer A2780 or the human gastric carcinoma BGC-823 cells. Animals were grouped randomly (d0) when the tumors reached 100-300 mm^3. […] Animal weights and tumor measurements were taken every […] and recorded. At the end of the study (d30 or d35), nude mice were euthanized and weighed. After the animals were sacrificed, tumor tissue was cut and weighed. Tumor volume was determined using the following equation: […]

[10] = test system: human lung adenocarcinoma A549-nude mice-xenograft tumor; experiment: Growth inhibition on A549-nude mice-xenograft tumor
Text: as §3, §4

[11] = test system: BGC-803; experiment: MTT cytotoxicity assay, BGC-803 cells; format: cell-based; conditions: Table 2, read-out: IC50 (mol/L) BGC-803
Experimental: as §1, §2

[12] = test system: BGC-823; experiment: MTT cytotoxicity assay, BGC-823 cells; format: cell-based, human; conditions: Table 2, read-out: IC50 (mol/L) BGC-823
Experimental: as §1, §2

[13] = test system: human ovarian cancer A2780-nude mice-xenograft tumor; experiment: Growth inhibition on A2780-nude mice-xenograft tumor; conditions: for Tv x ± SD dn: dn: 30 days after the first administration
Text: as §3, §4

[14] = test system: human mammary adenocarcinoma cell strain MCF-7; experiment: MTT cytotoxicity assay, MCF-7 cells; format: cell-based; conditions: Table 2, read-out: IC50 (mol/L) MCF-7
Experimental: as §1, §2

[15] = test system: A2780; experiment: MTT cytotoxicity assay, A2780 cells; format: cell-based, human; conditions: Table 2, read-out: IC50 (mol/L) A2780
Experimental: as §1, §2

## CC=C(C)C(=O)NC(c1ccccc1)C(O)C(=O)OC1CC2(O)C(OC(=O)c3cccc(N=[N+]=[N-])c3)C3C4(OC(C)=O)COC4CC(OC(=O)CC)C3(C)C(=O)C(O)C(=C1C)C2(C)C (stereo not drawn) [Example 8, 2-(3-azidobenzoyl)-7-propionyl-10-deacetyl-cephalomannine]
[1]
  IC50: 270 nM
[2]
  IC50: 8.7 nM
[3]; 2.5 × 8 mg/kg
  Inhibition (%): 27.77%
  Tumor weight (g) Average: 2.07 g
  Body weight (g) end: 22.0 g
  Body weight (g) initial: 20.0 g
[3]; 5 × 8 mg/kg
  Inhibition (%): 32.46%
  Tumor weight (g) Average: 1.96 g
  Body weight (g) end: 20.4 g
  Body weight (g) initial: 20.0 g
[3]; 10 × 8 mg/kg
  Inhibition (%): 76.08%
  Tumor weight (g) Average: 0.69 g
  Body weight (g) end: 16.8 g
  Body weight (g) initial: 19.5 g
[3]; Lewis lung cancer, comparison with taxol
  inhibition of tumor growth, conclusion in words: stronger effect
[4]; Table 1, MTT, 4 days of culture, read-out: IC50(M) KB
  IC50: 2.39e-09 M
[4]; Table 2, MTT assay, read-out: IC50 (mol/L) KB
  IC50: 4.9e-10 M
[5]; Table 1, MTT, 4 days of culture, read-out: IC50(M) A549
  IC50: 9.36e-09 M
[5]; Table 2, MTT assay, read-out: IC50 (mol/L) A549
  IC50: 9.4e-10 M
[6]; Table 2, MTT assay, read-out: IC50 (mol/L) A549/T
  IC50: 1.4 nM
[6]; read-out: IC50(M) A549/Taxol, Table 1, MTT, 4 days of culture
  IC50: > 1000 nM
[7]
  IC50: 2.73e-07 M
[8]
  IC50: 0.32 nM
[9]; 7.5 × 4 mg/kg i.p.
  RTV: 17.45
  T/C (%): 63.84%
  Tv x ± SD d0: 101.1 ± 17.4
  Tv x ± SD dn: 2057.5 ± 1756.4
  Body weight (g) end: 26.1 g
  Body weight (g) initial: 24.7 g
[9]; 15 × 4 mg/kg i.p.
  RTV: 9.27
  T/C (%): 33.90%
  Tv x ± SD d0: 104.4 ± 16
  Tv x ± SD dn: 1156.6 ± 403.9
  Body weight (g) end: 23.8 g
  Body weight (g) initial: 25.2 g
[9]; 30 × 4 mg/kg i.p.
  RTV: 0.47
  T/C (%): 4.57%
  Tv x ± SD d0: 99.7 ± 34.3
  Tv x ± SD dn: 177.1 ± 199.0
  Body weight (g) end: 23.9 g
  Body weight (g) initial: 25.0 g
[9]; BGC-823 nude mice-xenograft tumor, comparison with taxol
  inhibition of tumor growth, conclusion in words: equal to taxol
[10]; 7.5 × 3 mg/kg
  RTV: 7.2
  T/C (%): 60.7%
  Body weight (g) end: 21.8 g
  Tv x ± SD end: 3090 ± 900
  Body weight (g) initial: 21.6 g
  Tv x ± SD initial: 431 ± 94
[10]; 15 × 3 mg/kg
  RTV: 6.7
  T/C (%): 56.7%
  Body weight (g) end: 25.1 g
  Tv x ± SD end: 2897 ± 950
  Body weight (g) initial: 22.4 g
  Tv x ± SD initial: 432 ± 115
[10]; 30 × 3 mg/kg
  RTV: 4.0
  T/C (%): 33.56%
  Body weight (g) end: 23.2 g
  Tv x ± SD end: 1646 ± 450
  Body weight (g) initial: 21.8 g
  Tv x ± SD initial: 415 ± 85
[10]; A549 nude mice-xenograft tumor, comparison with taxol
  inhibition of tumor growth, conclusion in words: stronger effect
[11]
  IC50: 2.4 nM
[12]
  IC50: 1.3 nM
[13]; 7.5 × 4 mg/kg i.p.
  RTV: 7.8
  T/C (%): 80.3%
  Tv x ± SD dn: 989.3 ± 658.9
  Body weight (g) end: 25.5 g
  Body weight (g) initial: 22.4 g
[13]; 7.5 × 4 mg/kg i.p., d0
  Tv x ± SD d0: 127.6 ± 65.9
[13]; 15 × 4 mg/kg i.p.
  RTV: 6.6
  T/C (%): 68.1%
  Tv x ± SD dn: 855.6 ± 500.3
  Body weight (g) end: 25.2 g
  Body weight (g) initial: 22.0 g
[13]; 15 × 4 mg/kg i.p., d0
  Tv x ± SD d0: 130.2 ± 36.0
[13]; 30 × 4 mg/kg i.p.
  RTV: 3.4
  T/C (%): 34.9%
  Tv x ± SD dn: 529.6 ± 454.8
  Body weight (g) end: 22.3 g
  Body weight (g) initial: 22.0 g
[13]; 30 × 4 mg/kg i.p., d0 (first administration)
  Tv x ± SD d0: 157.1 ± 56.2
[13]; A2780 nude mice-xenograft tumor, comparison with taxol
  inhibition of tumor growth, conclusion in words: stronger effect
[14]
  IC50: 0.68 nM
[15]
  IC50: 3.6 nM
